# Source: patent publication EP3689885B1, “HIGHLY EFFECTIVE CONCENTRATES WITH PPDA AND THEIR USE IN STABILIZING MATERIALS IN ANIMAL EXCREMENTS” (SKW STICKSTOFFWERKE PIESTERITZ GmbH, priority 2019, dated 2020)
# “Also recorded” adds a separate entry of the source.
# Key:
# Urease = details: literature (Wenzel et al. 1983; Leinker 2007, laboratory screening); cited from earlier work
# [1] = Maximum solubility of PPDA in solvents / solvent mixtures; format: physicochemical
# Description: (§1) PPDA wurde bis zur maximalen Löslichkeit in die Lösungsmittel/ Lösungsmittelgemische eingebracht, die Lösungen wurden bei Raumtemperatur gelagert und der Wirkstoffgehalt (PPDA) nach 48 Wochen mittels HPLC überprüft.
# [2] = Stability of the active ingredient (PPDA) in the solution, HPLC; format: physicochemical; details: room temperature, 483840 min
# Description: as §1
structure (smiles),measurement,setting,value
"NP(N)(=O)Oc1ccccc1 [PPDA, Phenylphosphorsäurediamid]",Wirksamkeit als Urease-Inhibitor,Urease,mittlerer Wirkungsstärke; also recorded: nur mittlere Wirksamkeit
same,Löslichkeit,"[1]; DMSO/Diethylenglycolmonomethylether, Anteil LM 1 20 %, room temperature","3,0%"
same,Löslichkeit,"[1]; DMSO/Diethylenglycolmonomethylether, Anteil LM 1 40 %, room temperature","4,4%"
same,Löslichkeit,"[1]; DMSO/Diethylenglycolmonomethylether, Anteil LM 1 60 %, room temperature","7,8%"
same,Löslichkeit,"[1]; DMSO/Diethylenglycolmonomethylether, Anteil LM 1 80 %, room temperature","11,5%"
same,Löslichkeit,"[1]; DMSO/Glycerinformal, Anteil LM 1 20 %, room temperature","4,1%"
same,Löslichkeit,"[1]; DMSO/Glycerinformal, Anteil LM 1 40 %, room temperature","4,9%"
same,Löslichkeit,"[1]; DMSO/Glycerinformal, Anteil LM 1 60 %, room temperature","6,7%"
same,Löslichkeit,"[1]; DMSO/Glycerinformal, Anteil LM 1 80 %, room temperature","10,3%"
same,Löslichkeit,"[1]; DMSO/Propylenglycolmonomethyl ether, Anteil LM 1 20 %, room temperature","2,2%"
same,Löslichkeit,"[1]; DMSO/Propylenglycolmonomethyl ether, Anteil LM 1 40 %, room temperature","3,5%"
same,Löslichkeit,"[1]; DMSO/Propylenglycolmonomethyl ether, Anteil LM 1 60 %, room temperature","6,2%"
same,Löslichkeit,"[1]; DMSO/Propylenglycolmonomethyl ether, Anteil LM 1 80 %, room temperature","10,7%"
same,Löslichkeit,"[1]; DMSO/Pyrrolidon, Anteil LM 1 20 %, room temperature","6,0%"
same,Löslichkeit,"[1]; DMSO/Pyrrolidon, Anteil LM 1 40 %, room temperature","8,4%"
same,Löslichkeit,"[1]; DMSO/Pyrrolidon, Anteil LM 1 60 %, room temperature","9,9%"
same,Löslichkeit,"[1]; DMSO/Pyrrolidon, Anteil LM 1 80 %, room temperature","12,0%"
same,Löslichkeit,"[1]; DMSO, room temperature","11,5%"
same,Löslichkeit,"[1]; Diethylenenglycolmonomethylether / Glycerinformal, Anteil LM 1 20 %, room temperature","3,9%"
same,Löslichkeit,"[1]; Diethylenenglycolmonomethylether / Glycerinformal, Anteil LM 1 40 %, room temperature","3,3%"
same,Löslichkeit,"[1]; Diethylenenglycolmonomethylether / Glycerinformal, Anteil LM 1 60 %, room temperature","3,1%"
same,Löslichkeit,"[1]; Diethylenenglycolmonomethylether / Glycerinformal, Anteil LM 1 80 %, room temperature","2,6%"
same,Löslichkeit,"[1]; Propylenglycol monomethylether / Glycerinformal, Anteil LM 1 20 %, room temperature","2,8%"
same,Löslichkeit,"[1]; Propylenglycol monomethylether / Glycerinformal, Anteil LM 1 40 %, room temperature","2,7%"
same,Löslichkeit,"[1]; Propylenglycol monomethylether / Glycerinformal, Anteil LM 1 60 %, room temperature","2,2%"
same,Löslichkeit,"[1]; Propylenglycol monomethylether / Glycerinformal, Anteil LM 1 80 %, room temperature","1,5%"
same,Löslichkeit,"[1]; Propylenglycol monomethylether / Pyrrolidon, Anteil LM 1 40 %, room temperature","3,7%"
same,Löslichkeit,"[1]; Propylenglycol monomethylether / Pyrrolidon, Anteil LM 1 60 %, room temperature","2,9%"
same,Löslichkeit,"[1]; Propylenglycol monomethylether / Pyrrolidon, Anteil LM 1 80 %, room temperature","1,1%"
same,Löslichkeit,"[1]; Pyrrolidon / Glycerinformal, Anteil LM 1 20 %, room temperature","4,3%"
same,Löslichkeit,"[1]; Tetraethylenglycol / Pyrrolidon, Anteil LM 1 40 %, room temperature","5,5%"
same,Löslichkeit,"[1]; Tetraethylenglycol / Pyrrolidon, Anteil LM 1 60 %, room temperature","3,6%"
same,Löslichkeit,[1]; in most solvents generally known as good solvents for phosphoric acid amides (not named),< 1%
same,Wirkstoffwiederfindung nach 48 Wochen,[2]; saturated solution in DMSO,81%
same,Wirkstoffwiederfindung nach 48 Wochen,"[2]; saturated solution in DMSO/Diethylenglycolmonomethylether, Anteil LM 1 20 %",83%
same,Wirkstoffwiederfindung nach 48 Wochen,"[2]; saturated solution in DMSO/Diethylenglycolmonomethylether, Anteil LM 1 40 %",85%
same,Wirkstoffwiederfindung nach 48 Wochen,"[2]; saturated solution in DMSO/Diethylenglycolmonomethylether, Anteil LM 1 60 %",93%
same,Wirkstoffwiederfindung nach 48 Wochen,"[2]; saturated solution in DMSO/Diethylenglycolmonomethylether, Anteil LM 1 80 %",80%
same,Wirkstoffwiederfindung nach 48 Wochen,"[2]; saturated solution in DMSO/Glycerinformal, Anteil LM 1 20 %",82%
same,Wirkstoffwiederfindung nach 48 Wochen,"[2]; saturated solution in DMSO/Glycerinformal, Anteil LM 1 40 %",91%
same,Wirkstoffwiederfindung nach 48 Wochen,"[2]; saturated solution in DMSO/Glycerinformal, Anteil LM 1 60 %",92%
same,Wirkstoffwiederfindung nach 48 Wochen,"[2]; saturated solution in DMSO/Glycerinformal, Anteil LM 1 80 %",86%
same,Wirkstoffwiederfindung nach 48 Wochen,"[2]; saturated solution in DMSO/Propylenglycolmonomethyl ether, Anteil LM 1 20 %",100%
same,Wirkstoffwiederfindung nach 48 Wochen,"[2]; saturated solution in DMSO/Propylenglycolmonomethyl ether, Anteil LM 1 40 %",100%
same,Wirkstoffwiederfindung nach 48 Wochen,"[2]; saturated solution in DMSO/Propylenglycolmonomethyl ether, Anteil LM 1 60 %",95%
same,Wirkstoffwiederfindung nach 48 Wochen,"[2]; saturated solution in DMSO/Propylenglycolmonomethyl ether, Anteil LM 1 80 %",89%
same,Wirkstoffwiederfindung nach 48 Wochen,"[2]; saturated solution in DMSO/Pyrrolidon, Anteil LM 1 20 %",79%
same,Wirkstoffwiederfindung nach 48 Wochen,"[2]; saturated solution in DMSO/Pyrrolidon, Anteil LM 1 40 %",88%
same,Wirkstoffwiederfindung nach 48 Wochen,"[2]; saturated solution in DMSO/Pyrrolidon, Anteil LM 1 60 %",93%
same,Wirkstoffwiederfindung nach 48 Wochen,"[2]; saturated solution in DMSO/Pyrrolidon, Anteil LM 1 80 %",92%
same,Wirkstoffwiederfindung nach 48 Wochen,"[2]; saturated solution in Diethylenenglycolmonomethylether / Glycerinformal, Anteil LM 1 20 %",85%
same,Wirkstoffwiederfindung nach 48 Wochen,"[2]; saturated solution in Diethylenenglycolmonomethylether / Glycerinformal, Anteil LM 1 40 %",89%
same,Wirkstoffwiederfindung nach 48 Wochen,"[2]; saturated solution in Diethylenenglycolmonomethylether / Glycerinformal, Anteil LM 1 60 %",72%
same,Wirkstoffwiederfindung nach 48 Wochen,"[2]; saturated solution in Diethylenenglycolmonomethylether / Glycerinformal, Anteil LM 1 80 %",73%
same,Wirkstoffwiederfindung nach 48 Wochen,"[2]; saturated solution in Propylenglycol monomethylether / Glycerinformal, Anteil LM 1 20 %",93%
same,Wirkstoffwiederfindung nach 48 Wochen,"[2]; saturated solution in Propylenglycol monomethylether / Glycerinformal, Anteil LM 1 40 %",100%
same,Wirkstoffwiederfindung nach 48 Wochen,"[2]; saturated solution in Propylenglycol monomethylether / Glycerinformal, Anteil LM 1 60 %",100%
same,Wirkstoffwiederfindung nach 48 Wochen,"[2]; saturated solution in Propylenglycol monomethylether / Glycerinformal, Anteil LM 1 80 %",100%
same,Wirkstoffwiederfindung nach 48 Wochen,"[2]; saturated solution in Propylenglycol monomethylether / Pyrrolidon, Anteil LM 1 40 %",100%
same,Wirkstoffwiederfindung nach 48 Wochen,"[2]; saturated solution in Propylenglycol monomethylether / Pyrrolidon, Anteil LM 1 60 %",100%
same,Wirkstoffwiederfindung nach 48 Wochen,"[2]; saturated solution in Propylenglycol monomethylether / Pyrrolidon, Anteil LM 1 80 %",100%
same,Wirkstoffwiederfindung nach 48 Wochen,"[2]; saturated solution in Pyrrolidon / Glycerinformal, Anteil LM 1 20 %",72%
same,Wirkstoffwiederfindung nach 48 Wochen,"[2]; saturated solution in Tetraethylenglycol / Pyrrolidon, Anteil LM 1 40 %",87%
same,Wirkstoffwiederfindung nach 48 Wochen,"[2]; saturated solution in Tetraethylenglycol / Pyrrolidon, Anteil LM 1 60 %",76%
